Laboratory results taken from patent US9833497B2, “Human originated EGF domain proteins and use of the same” (CHENGDU SOURCEBIO LIMITED-LIABILITY COMPANY, priority 2013, dated 2017).

Columns and labels:
Type in all cases: cell-based
E. coli DH5α = assay: Antibacterial activity: MIC and growth curve against E. coli DH5α in 96-well plate; conditions: minimal inhibitory concentration against E. coli DH5α; 96-well plate, 5×10^5 CFU/mL, 37° C., judged after 8 h
Outline: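 MIC taken as lowest protein level with no bacterial growth, tracked by A600 every 30 min during 37 °C, 175 rpm culture. Two-fold protein series 50-12.5 μg/mL final, triplicate wells, against 5×10^5 CFU/mL of LB-washed mid-log cells.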

E. coli BL21 = assay: MIC against Gram-negative bacteria: E. coli BL21; conditions: 5×10^5 CFU/mL; for MIC against E. coli BL21: 96-well plate, 37° C., 10 h; for MIC (μg/mL) E. coli BL21: 10 h cultivation at 37° C.
Outline: (§1)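 Purified recombinant human EGF domain proteins are tested by broth dilution in LB against a 5×10^5 CFU/mL inoculum, with two-fold serial dilutions run in triplicate. Plates are incubated at 37° C with shaking, and the MIC is read as the lowest protein concentration without growth.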

Pseudomonas aeruginosa = assay: MIC against Gram-negative bacteria: Pseudomonas aeruginosa; conditions: 5×10^5 CFU/mL; for MIC against P. aeruginosa: 96-well plate, 37° C., 10 h; for MIC (μg/mL) P. aeruginosa: 10 h cultivation at 37° C.
Outline: as §1

Klebsiella pneumonia = assay: MIC against Gram-negative bacteria: Klebsiella pneumonia; conditions: 5×10^5 CFU/mL; for MIC against K. pneumonia: 96-well plate, 37° C., 10 h; for MIC (μg/mL) K. pneumonia: 10 h cultivation at 37° C.
Outline: as §1

Enterobacter cloacae = assay: MIC against Gram-negative bacteria: Enterobacter cloacae; conditions: 5×10^5 CFU/mL; for MIC against E. cloacae: 96-well plate, 37° C., 10 h; for MIC (μg/mL) E. cloacae: 10 h cultivation at 37° C.
Outline: as §1

Aeromonas hydrophila = assay: MIC against Gram-negative bacteria: Aeromonas hydrophila; conditions: 5×10^5 CFU/mL; for MIC against A. hydrophila: 96-well plate, 37° C., 10 h; for MIC (μg/mL) A. hydrophila: 10 h cultivation at 37° C.
Outline: as §1

Citrobacter diversus = assay: MIC against Gram-negative bacteria: Citrobacter diversus; conditions: 5×10^5 CFU/mL; for MIC against C. diversus: 96-well plate, 37° C., 10 h; for MIC (μg/mL) C. diversus: 10 h cultivation at 37° C.
Outline: as §1

Moraxella catarrhalis = assay: MIC against Gram-negative bacteria: Moraxella catarrhalis; conditions: 5×10^5 CFU/mL; for MIC against M. catarrhalis: 96-well plate, 37° C., 10 h; for MIC (μg/mL) M. catarrhalis: 10 h cultivation at 37° C.
Outline: as §1

Proteus mirabilis = assay: MIC against Gram-negative bacteria: Proteus mirabilis; conditions: 5×10^5 CFU/mL; for MIC against P. mirabilis: 96-well plate, 37° C., 10 h; for MIC (μg/mL) P. mirabilis: 10 h cultivation at 37° C.
Outline: as §1

Proteus vulgaris = assay: MIC against Gram-negative bacteria: Proteus vulgaris; conditions: 5×10^5 CFU/mL; for MIC against P. vulgaris: 96-well plate, 37° C., 10 h; for MIC (μg/mL) P. vulgaris: 10 h cultivation at 37° C.
Outline: as §1

Serratia marcescens = assay: MIC against Gram-negative bacteria: Serratia marcescens; conditions: 5×10^5 CFU/mL; for MIC against S. marcescens: 96-well plate, 37° C., 10 h; for MIC (μg/mL) S. marcescens: 10 h cultivation at 37° C.
Outline: as §1

Row | Substance | MIC (E. coli DH5α) | MIC against E. coli BL21 (E. coli BL21; E. coli BL21) | MIC against P. aeruginosa (Pseudomonas aeruginosa; Pseudomonas aeruginosa) | MIC against K. pneumonia (Klebsiella pneumonia; Klebsiella pneumonia) | MIC against E. cloacae (Enterobacter cloacae; Enterobacter cloacae) | MIC against A. hydrophila (Aeromonas hydrophila; Aeromonas hydrophila) | MIC against C. diversus (Citrobacter diversus; Citrobacter diversus) | MIC against M. catarrhalis (Moraxella catarrhalis; Moraxella catarrhalis) | MIC against P. mirabilis (Proteus mirabilis; Proteus mirabilis) | MIC against P. vulgaris (Proteus vulgaris; Proteus vulgaris) | MIC against S. marcescens (Serratia marcescens; Serratia marcescens) | also measured
1 | PRT445 (DVNECELYGQEGRPRLCMHACVNTPGSYRCTCPGGYRTLADGKSCE; listed as Homo sapiens) | 50 µg/mL | – | – | – | – | – | – | – | – | – | – | MIC against E. coli BL21 (E. coli BL21): 12.5 µg/mL; MIC against P. aeruginosa (Pseudomonas aeruginosa): 50 µg/mL; MIC against K. pneumonia (Klebsiella pneumonia): 25 µg/mL; MIC against E. cloacae (Enterobacter cloacae): 12.5 µg/mL; MIC against A. hydrophila (Aeromonas hydrophila): 25 µg/mL; MIC against C. diversus (Citrobacter diversus): 50 µg/mL; MIC against M. catarrhalis (Moraxella catarrhalis): 12.5 µg/mL; MIC against P. mirabilis (Proteus mirabilis): 12.5 µg/mL; MIC against P. vulgaris (Proteus vulgaris): 12.5 µg/mL; MIC against S. marcescens (Serratia marcescens): 12.5 µg/mL
2 | PRT159 (EYDACQRKPCQNNASCIDANEKQDGSNFTCVCLPGYTGELCQ; listed as Homo sapiens) | 25 µg/mL | – | – | – | – | – | – | – | – | – | – | MIC (μg/mL) E. coli BL21 (E. coli BL21; E. coli BL21): 50 µg/mL; MIC (μg/mL) P. aeruginosa (Pseudomonas aeruginosa): 25 µg/mL; MIC (μg/mL) K. pneumonia (Klebsiella pneumonia): 12.5 µg/mL; MIC (μg/mL) E. cloacae (Enterobacter cloacae): 12.5 µg/mL; MIC (μg/mL) A. hydrophila (Aeromonas hydrophila): 12.5 µg/mL; MIC (μg/mL) C. diversus (Citrobacter diversus): 12.5 µg/mL; MIC (μg/mL) M. catarrhalis (Moraxella catarrhalis): 12.5 µg/mL; MIC (μg/mL) P. mirabilis (Proteus mirabilis): 25 µg/mL; MIC (μg/mL) P. vulgaris (Proteus vulgaris): 12.5 µg/mL; MIC (μg/mL) S. marcescens (Serratia marcescens): 25 µg/mL
3 | PRT1254 (DVDECSEGTDDCHIDAICQNTPKSYKCLCKPGYKGEGKQCE; listed as Homo sapiens) | 12.5 µg/mL | 25 µg/mL | 50 µg/mL | 25 µg/mL | 12.5 µg/mL | 50 µg/mL | 12.5 µg/mL | 50 µg/mL | 12.5 µg/mL | 25 µg/mL | 50 µg/mL | –
4 | PRT1270 (DVDECSLDRTCDHSCINHPGTFACACNRGYTLYGFTHCG; listed as Homo sapiens) | 50 µg/mL | 12.5 µg/mL | 50 µg/mL | 12.5 µg/mL | 50 µg/mL | 25 µg/mL | 12.5 µg/mL | 25 µg/mL | 50 µg/mL | 25 µg/mL | 12.5 µg/mL | –
5 | PRT1252 (CPLTCDDISGQVTCPPDWPCGSPGCWCPEGQVLGSEGWCV; listed as Homo sapiens) | 12.5 µg/mL | 50 µg/mL | 25 µg/mL | 12.5 µg/mL | 25 µg/mL | 50 µg/mL | 12.5 µg/mL | 25 µg/mL | 50 µg/mL | 25 µg/mL | 12.5 µg/mL | –
6 | PRT1267 (CNHGNGGCQHSCDDTADGPECSCHPQYKMHTDGRSC; listed as Homo sapiens) | 12.5 µg/mL | 25 µg/mL | 50 µg/mL | 25 µg/mL | 12.5 µg/mL | 50 µg/mL | 12.5 µg/mL | 25 µg/mL | 50 µg/mL | 25 µg/mL | 12.5 µg/mL | –
7 | PRT198 (CQPKTCNMRGICNNKQHCHCNHEWAPPYC; listed as Homo sapiens) | 12.5 µg/mL | – | – | – | – | – | – | – | – | – | – | MIC (μg/mL) E. coli BL21 (E. coli BL21; E. coli BL21): 12.5 µg/mL; MIC (μg/mL) P. aeruginosa (Pseudomonas aeruginosa): 12.5 µg/mL; MIC (μg/mL) K. pneumonia (Klebsiella pneumonia): 50 µg/mL; MIC (μg/mL) E. cloacae (Enterobacter cloacae): 12.5 µg/mL; MIC (μg/mL) A. hydrophila (Aeromonas hydrophila): 25 µg/mL; MIC (μg/mL) C. diversus (Citrobacter diversus): 50 µg/mL; MIC (μg/mL) M. catarrhalis (Moraxella catarrhalis): 25 µg/mL; MIC (μg/mL) P. mirabilis (Proteus mirabilis): 12.5 µg/mL; MIC (μg/mL) P. vulgaris (Proteus vulgaris): 25 µg/mL; MIC (μg/mL) S. marcescens (Serratia marcescens): 50 µg/mL
